# According to patent US10920248B2, “Method for mass-producing viniferin using stevioside from cell culture of grapevine tissue” (KOREA RESEARCH INSTITUTE OF BIOSCIENCE AND BIOTECHNOLOGY, priority 2016, dated 2021):
# Experiments:
# [1] = tested on: resveratrol biosynthesis gene (STS, ROMT); assay: Transcription expression analysis (RT-PCR) of resveratrol biosynthesis genes after activity-inducing agent treatment of grape callus liquid culture; assay type: cell-based, Vitis vinifera L. cv Campbell Early; settings: FIG. 2; for expression of the two genes (STS, ROMT): grape callus in MS1D liquid medium, 24 hours after treatment, RT-PCR
# Experimental: In order to establish a production system of resveratrol from grape callus, transcription expression analysis was performed through a liquid culture of stabilized grape callus derived in Example 1 as described above. It was performed in which they were cultured in MS1D (4.4 g of MS, 30 g of sucrose, 0.5 g of MES, 0.1 g of Miyo-inositol, 0.4 mg thiamine HCl, and 1 mg/L of 2,4-D), which is called a Murashige & Skoog (MS) medium containing 1 mg/L of 2,4-D, liquid medium at 25° C. and 90 rpm for 7 days, followed by treatment with an activity-inducing agent. After 24 hours, total RNA was isolated from the grape callus (Kim C Y et al. 2010, Physiologia plantarum 139: 259-261). cDNA was synthesized from the isolated total RNA (5 μg) using First-Strand cDNA Synthesis Kit (Fermantas, Canada) as described in the instruction. The synthesized cDNA (20 μl) was diluted 2.5 times and then subjected to RT-PCR using 2 μl as a template for genes related to resveratrol and pterostilbene biosynthesis from the grape callus. PCR amplification was carried out by denaturation at 94° C. for 2 minutes, 25 cycles of at 95° C. for 30 seconds, 50° C. for 40 seconds, and 72° C. for 1 minute, and a final extension reaction at 72° C. for 10 minutes. The grape resveratrol, pterostilbene biosynthesis gene, and grapactin RT-PCR primers used for this experiment were as follows: […]
# Various activity-inducing agents were used for the treatment so as to promote the production of stilbene compound. The activity-inducing agents used herein were methyl jasmonate (MeJA), abscisic acid (ABA), salicylic acid (SA), ethephon, flagellin 22 (Flg22), methyl viologen (MV), and chitosan. The results confirmed that the expression of the two genes increased when MeJA, SA, and Flg22 were used and that the gene expression was the highest when MeJA was used (see FIG. 2).
# [2] = tested on: grape callus; assay: Production of stilbene compounds in grape callus culture treated with activity-inducing agent and solubilizing agent, HPLC analysis of culture extract; assay type: cell-based, Vitis vinifera L. cv Campbell Early; settings: with 100 μM MeJA, 7-day grape callus culture medium, 50 mM stevioside, FIG. 3
# Experimental: Production of stilbene compounds was induced using the activity-inducing agent (100 μM MeJA) selected in Example 2 as described above. 20 ml of MS was inoculated with 2 g of grape callus, then cultured in a 125 ml flask for 7 days. Then, it was treated with 100 μM MeJA to obtain grape callus after 5 days. HPLC analysis was performed on the extract thereof. […] The experiment was performed to increase the production rate by solubilizing stilbene compound produced by treating with stevioside. As described above, 7-day grape callus culture was treated with 5 mM, 10 mM, 25 mM, and 50 mM stevioside at different concentrations or was treated with 100 μM MeJA and 5 mM, 10 mM, 2 5 mM, and 50 mM stevioside at different concentrations. After 5 days of culture, the samples were separated into callus and callus culture using a filter. The separated callus was filtered, followed by dehydration. The callus was frozen with liquid nitrogen and stored at −80° C. until extraction. The callus culture extract was directly extracted from the callus culture sample without storage so as to be used. […]
Structure (SMILES),"gene expression compared among activity-inducing agents ([1]; compared with ABA, SA, ethephon, Flg22, MV, chitosan)","expression of the two genes (STS, ROMT) [1]",content of the stilbene compound compared to the group untreated with stevioside [2]
"CC/C=C\CC1C(=O)CCC1CC(=O)OC (stereo not shown) [MeJA, methyl jasmonate]",highest,increased,–
"O=C(O)c1ccccc1O [SA, salicylic acid]",–,increased,–
C=C1C[C@@]23CC[C@H]4[C@@](C)(CCC[C@@]4(C)C(=O)O[C@@H]4O[C@H](CO)[C@@H](O)[C@H](O)[C@H]4O)[C@@H]2CC[C@]1(O[C@@H]1O[C@H](CO)[C@@H](O)[C@H](O)[C@H]1O[C@@H]1O[C@H](CO)[C@@H](O)[C@H](O)[C@H]1O)C3 [stevioside],–,–,significantly increased
